Experimental data: patent US4250176A, “Piperazine derivatives” (priority 1979, dated 1981)
Values after ≈ are worked out from the molar mass of the structure shown. Counter-ions that a name gives are not always drawn. Like-named read-outs stand apart in the source and are kept apart here. One block for each compound: values may come before it.

Key:
[1] = system: histamine paw oedema in guinea pigs; assay: Histamine paw oedema in guinea pigs; type: in vivo, guinea pig; details: Cavia porcellus, oral dose giving paw reaction below 10 units 10 minutes after 50 μg histamine s.p., 2 hours after dosing, read-out: Anaphylaxis in guinea pigs oral effective dose in mg/kg: Histamine oedema
Protocol: Guinea pigs, weighing between 400 and 500 g, are sensitized to ovalbumin by subplantar (s.p.) injection of 0.05 ml of antiserum in the left hind paw. The animals are then starved and orally treated, 24 hours after the sensitization, with saline (=control animals) or a particular dose of the compound under investigation. The histamine injection (at a dose of 50 μg) was given s.p. in the right hind paw 2 hours after the oral pretreatment with the compound.

[2] = system: Guinea-pig ileum strips, histamine-induced contraction; assay: Anti-histamine activity in "vitro": histamine-induced spasms of guinea-pig ileum strips; type: cell-based; details: Cavia porcellus, 5 min, histamine 0.5 mg/liter, 5 minutes incubation, concentration giving significant inhibition (50%) of the contraction
Protocol: The histamine--(0.5 mg/liter) induced spasms are recorded Kymographically with an isotonic lever giving a 5-fold magnification.

[3] = system: Guinea pigs sensitized to ovalbumin (anaphylactic shock); assay: Anaphylaxis in guinea pigs: protection against death after ovalbumin challenge (survival); type: in vivo, guinea pig; details: Cavia porcellus, estimated ED50, oral, protection against death after i.v. 0.6 mg ovalbumin, read-out: Anaphylaxis in guinea pigs oral effective dose in mg/kg: Survival
Protocol: The anti-anaphylactic and antihistaminic effects of the subject compounds (I) and salts thereof are studied "in vivo" in guinea pigs.
Guinea pigs, weighing between 400 and 500 g, are sensitized to ovalbumin by subplantar (s.p.) injection of 0.05 ml of antiserum in the left hind paw. The animals are then starved and orally treated, 24 hours after the sensitization, with saline (=control animals) or a particular dose of the compound under investigation.
The histamine injection (at a dose of 50 μg) was given s.p. in the right hind paw 2 hours after the oral pretreatment with the compound. The diameters of both hind paws are first measured before the histamine injection is given and again 10 minutes thereafter. The animals are challenged intravenously with 0.6 mg of ovalbumin 30 minutes after the histamine injection. All control animals develop typical primary anaphylactic shock symptoms (coughing, difficult breathing, convulsions) and 85% of these control animals die within 15 minutes after the ovalbumin injection. Protection against death is used as the criterion for possible drug effects and the estimated ED50 -value, i.e. the oral dose whereby the protection is observed in 50% of the guinea pigs, is listed in the tables below.

[4] = Table I-a, read-out: Histamine in "vitro" (ileum) effective conc.
[5] = Table I-b, read-out: Histamine in "vitro" (ileum) effective conc.
[6] = Table I-e, read-out: Histamine in "vitro" (ileum) effective dose

Compound: Cc1ccc(C(c2ccccc2)N2CCN(CCCn3c(=O)[nH]c4ccccc43)CC2)cc1 (stereo not drawn) [1,3-dihydro-1-[3-{4-[(4-methylphenyl)phenylmethyl]-1-piperazinyl}-propyl}-2H-benzimidazol-2-one]
- minimal effective dose ([1]; Table I-a): < 2.5 mg/kg
- IC50 [2, 4]: 0.08 µg/mL (≈ 0.182 µM)
- ED50 ([3]; Table I-a): < 2.5 mg/kg

Compound: O=c1[nH]c2ccccc2n1CCCN1CCN(C(c2ccccc2)c2ccc([N+](=O)[O-])cc2)CC1 (stereo not drawn) [1,3-dihydro-1-[3-{4-[(4-nitrophenyl)phenylmethyl]-1-piperazinyl}propyl]-2H-benzimidazol-2-one]
- minimal effective dose ([1]; Table I-a): < 2.5 mg/kg
- IC50 [2, 4]: 0.16 µg/mL (≈ 0.339 µM)
- ED50 ([3]; Table I-a): < 2.5 mg/kg

Compound: O=c1[nH]c2ccccc2n1CCN1CCC(OC(c2ccc(F)cc2)c2ccc(F)cc2)CC1 [1-[2-{4-[bis(4-fluorophenyl)methoxy]-1-piperidinyl}ethyl]-1,3-dihydro-2H-benzimidazol-2-one hydrochloride.hemihydrate]
- minimal effective dose ([1]; Table I-d): 0.31 mg/kg
- IC50 ([2]; Table I-d, read-out: Histamine in "vitro" (ileum) effective dose): 0.0025 µg/mL
- ED50 ([3]; Table I-d): 0.31 mg/kg

Compound: O=c1[nH]c2ccccc2n1CCN1CCN(C(c2ccc(F)cc2)c2ccc(F)cc2)CC1 [1-[2-{4-[bis(4-fluorophenyl)methyl]-1-piperazinyl}ethyl]-1,3-dihydro-2H-benzimidazol-2-one hemihydrate]
- minimal effective dose ([1]; Table I-a): 0.63 mg/kg
- IC50 [2, 4]: 0.02 µg/mL
- ED50 ([3]; Table I-a): 0.63 mg/kg

Compound: O=c1[nH]c2ccccc2n1CCN1CCN(C(c2ccccc2)c2ccc(F)cc2)CC1 (stereo not drawn) [1-[2-{4-[α-(4-fluorophenyl)-α-phenylmethyl]-1-piperazinyl}ethyl]-1,3-dihydro-2H-benzimidazol-2-one]
- minimal effective dose ([1]; Table I-a): 0.16 mg/kg
- IC50 [2, 4]: 0.02 µg/mL (≈ 0.0465 µM)
- ED50 ([3]; Table I-a): 0.31 mg/kg

Compound: O=c1[nH]c2ccccc2n1CCCN1CCN(C(c2ccccc2)c2ccccc2F)CC1 (stereo not drawn) [1-[3-{4-[(2-fluorophenyl)phenylmethyl]-1-piperazinyl}propyl]-1,3-dihydro-2H-benzimidazol-2-one]
- minimal effective dose ([1]; Table I-a): < 2.5 mg/kg
- IC50 [2, 4]: 0.02 µg/mL (≈ 0.045 µM)
- ED50 ([3]; Table I-a): < 2.5 mg/kg

Compound: CC(CN1CCN(C(c2ccccc2)c2ccccc2)CC1)Cn1cnc2ccccc21 (stereo not drawn) [1-{3-[4-(diphenylmethyl)-1-piperazinyl]-2-methylpropyl}-1H-benzimidazole trihydrochloride.hemihydrate]
- IC50 [2, 5]: 0.02 µg/mL

Compound: O=c1[nH]c2cccc(Cl)c2n1CCCN1CCN(C(c2ccccc2)c2ccccc2)CC1 [4-chloro-3-{3-[4-(diphenylmethyl)-1-piperazinyl]propyl}-1,3-dihydro-2H-benzimidazol-2-one]
- IC50 [2, 4]: 0.08 µg/mL (≈ 0.174 µM)
- ED50 ([3]; Table I-a): ≥ 2.5 mg/kg

Compound: O=c1n(CCCN2CCN(C(c3ccccc3)c3ccccc3)CC2)c2ccc(Cl)cc2n1-c1ccccc1 [5-chloro-1-{3-[4-(diphenylmethyl)-1-piperazinyl]propyl}-1,3-dihydro-3-phenyl-2H-benzimidazol-2-one dihydrochloride.hemihydrate]
- IC50 [2, 4]: 0.08 µg/mL

Compound: Clc1ccc2c(c1)nc(Cc1ccccc1)n2CCCN1CCN(C(c2ccccc2)c2ccccc2)CC1 [5-chloro-1-{3-[4-(diphenylmethyl)-1-piperazinyl]propyl}-2-(phenylmethyl)-1H-benzimidazole trihydrochloride.hydrate]
- ED50 ([3]; Table I-b): 2.5 mg/kg

Compound: Clc1ccc2c(c1)nc(C1CCCCC1)n2CCCN1CCN(C(c2ccccc2)c2ccccc2)CC1 [5-chloro-2-cyclohexyl-1-{5-[4-diphenylmethyl)-1-piperazinyl]propyl}-1H-benzimidazole]
- minimal effective dose ([1]; Table I-b): 2.5 mg/kg
- ED50 ([3]; Table I-b): 0.63 mg/kg

Compound: Clc1ccc2nc(C3CCCCC3)n(CCCN3CCN(C(c4ccccc4)c4ccccc4)CC3)c2c1 [6-chloro-2-cyclohexyl-1-[3-[4-(diphenylmethyl)-1-piperazinyl]propyl}-1H-benzimidazole]
- ED50 ([3]; Table I-b): 2.5 mg/kg

Compound: Clc1ccc2nc(-c3ccccc3)n(CCCN3CCN(C(c4ccccc4)c4ccccc4)CC3)c2c1 [I-b: M=C6H5, R1=6-Cl, (CH2)3, R6=H, R7=H, 6-chloro-1-{3-[4-(diphenylmethyl)-1-piperazinyl]propyl}-2-phenyl-1H-benzimidazole]
- ED50 ([3]; Table I-b): 2.5 mg/kg

Compound: c1ccc(-c2nc3ccccc3n2CCCN2CCN(C(c3ccccc3)c3ccccc3)CC2)cc1 [I-b: M=C6H5, R1=H, (CH2)3, R6=H, R7=H, 1-{3-[4-(diphenylmethyl)-1-piperazinyl]propyl}-2-phenyl-1H-benzimidazole]
- IC50 [2, 5]: 0.08 µg/mL (≈ 0.164 µM)

Compound: c1ccc(Cc2nc3ccccc3n2CCCN2CCN(C(c3ccccc3)c3ccccc3)CC2)cc1 [I-b: M=C6H5CH2, R1=H, (CH2)3, R6=H, R7=H, 1-{3-[4-(diphenylmethyl)-1-piperazinyl]propyl}-2-(phenylmethyl)-1H-benzimidazole trihydrochloride.trihydrate]
- IC50 [2, 5]: ≥ 0.16 µg/mL

Compound: CC(=O)N=c1[nH]c2ccccc2n1CCCN1CCN(C(c2ccccc2)c2ccccc2)CC1 [I-b: M=CH3CONH, R1=H, (CH2)3, R6=H, R7=H, N-[1-{3-[4-(diphenylmethyl)-1-piperazinyl]propyl}-1,3-dihydro-2H-benzimidazol-2-ylidene]acetamide]
- IC50 [2, 5]: ≥ 0.16 µg/mL
- ED50 ([3]; Table I-b): 2.5 mg/kg

Further lines, with some results ahead:

- IC50 [2, 4]: 0.08 µg/mL (≈ 0.174 µM)
Compound: O=c1[nH]c2ccccc2n1CCCN1CCN(C(c2ccccc2)c2ccccc2Cl)CC1 (stereo not drawn) [1-[3-{4-[(2-chlorophenyl)phenylmethyl]-1-piperazinyl}-propyl]-1,3-dihydro-2H-benzimidazol-2-one]

- IC50 [2, 4]: 0.02 µg/mL (≈ 0.0414 µM)
Compound: CNC(=O)n1c(=O)n(CCCN2CCN(C(c3ccccc3)c3ccccc3)CC2)c2ccccc21 [3-{3-[4-(diphenylmethyl)-1-piperazinyl]propyl}-2,3-dihydro-N-methyl-2-oxo-1H-benzimidazole-1-carboxamide]

- IC50 [2, 5]: 0.01 µg/mL
Compound: CCc1nc2cc(Cl)ccc2n1CCCN1CCN(C(c2ccccc2)c2ccccc2)CC1 [I-b: M=C2H5, R1=5-Cl, (CH2)3, R6=H, R7=H, 5-chloro-1-{3-[4-(diphenylmethyl)-1-piperazinyl]propyl}-2-ethyl-1H-benzimidazole trihydrochloride.hydrate]

- IC50 [2, 5]: ≥ 0.16 µg/mL
Compound: CCc1nc2ccccc2n1CCN1CCN(C(c2ccccc2)c2ccccc2)CC1 [I-b: M=C2H5, R1=H, (CH2)2, R6=H, R7=H, 1-{2-[4-(diphenylmethyl)-1-piperazinyl]ethyl}-2-ethyl-1H-benzimidazole trihydrochloride.hydrate]

- IC50 [2, 6]: 0.16 µg/mL (≈ 0.359 µM)
Compound: O=c1[nH]c2ccccc2n1CCCN1CCN(C(c2ccncc2)c2ccc(F)cc2)CC1 (stereo not drawn) [I-e: Ar1=4-FC6H4, Ar2=4-pyridinyl, 1-[3-{4-[(4-fluorophenyl)(4-pyridinyl)methyl]-1-piperazinyl}propyl]-1,3-dihydro-2H-benzimidazol-2-one]
- minimal effective dose ([1]; Table I-e): ≤ 2.5 mg/kg

- IC50 [2, 6]: 0.16 µg/mL (≈ 0.352 µM)
Compound: Cc1ccc(C)c(C(c2ccccc2)N2CCN(CCCn3c(=O)[nH]c4ccccc43)CC2)c1 (stereo not drawn) [I-e: Ar1=C6H5, Ar2=2,5-(CH3)2C6H3, 1-[3-{4-[(2,5-dimethylphenyl)phenylmethyl]-1-piperazinyl}propyl]-1,3-dihydro-2H-benzimidazol-2-one]

- IC50 [2, 6]: 0.16 µg/mL (≈ 0.374 µM)
Compound: O=c1[nH]c2ccccc2n1CCCN1CCN(C(c2ccccc2)c2ccccn2)CC1 (stereo not drawn) [I-e: Ar1=C6H5, Ar2=2-pyridinyl, 1,3-dihydro-1-[3-{4-[phenyl(2-pyridinyl)methyl]-1-piperazinyl}propyl]-2H-benzimidazol-2-one]
- minimal effective dose ([1]; Table I-e): 2.5 mg/kg

- IC50 [2, 6]: 0.08 µg/mL (≈ 0.187 µM)
Compound: O=c1[nH]c2ccccc2n1CCCN1CCN(C(c2ccccc2)c2cccnc2)CC1 (stereo not drawn) [I-e: Ar1=C6H5, Ar2=3-pyridinyl, 1,3-dihydro-1-[3-{4-[phenyl(3-pyridinyl)methyl]-1-piperazinyl}propyl]-2H-benzimidazol-2-one]
- minimal effective dose ([1]; Table I-e): < 2.5 mg/kg
